Data taken from paper PMC11025159 (Journal of Translational Medicine, 2024).

Assays:
Panc-2 = test: MTT cell viability assay Panc-2; type: cell-based; settings: 48 h
Experimental: (§1) Cell viability was evaluated using an MTT colorimetric assay. Cells were seeded (10^5 cells/mL) in 96-well plates and allowed to grow overnight at 37 ℃ with 5% CO2 in a cell-culture incubator. On the following day, the cells were treated with small molecules at different concentrations (0.2–10 micro-molar) or vehicle (DMSO). Cells were then further incubated for 48 h.

A549 = test: MTT cell viability assay A549; type: cell-based, human; settings: 48 h
Experimental: as §1

HCT-116 = test: MTT cell viability assay HCT-116; type: cell-based, human; settings: 48 h
Experimental: as §1

Mia PaCa-2 = test: MTT cell viability assay Mia PaCa-2; type: cell-based, human; settings: 48 h
Experimental: as §1

HEK-293 = test: MTT cell viability assay HEK-293; type: cell-based, human; settings: read-out: IC50 HEK-293; MTT, 48 h; normal cell line
Experimental: as §1

JAK3 = target: T1, JAK3 (Homo sapiens, UniProt P52333); test: Cell-free kinase assay JAK3; type: biochemical; settings: structure-activity statement
T1 construct: purchased Promega Corporation V3701
T1 sequence (P52333 1-1124): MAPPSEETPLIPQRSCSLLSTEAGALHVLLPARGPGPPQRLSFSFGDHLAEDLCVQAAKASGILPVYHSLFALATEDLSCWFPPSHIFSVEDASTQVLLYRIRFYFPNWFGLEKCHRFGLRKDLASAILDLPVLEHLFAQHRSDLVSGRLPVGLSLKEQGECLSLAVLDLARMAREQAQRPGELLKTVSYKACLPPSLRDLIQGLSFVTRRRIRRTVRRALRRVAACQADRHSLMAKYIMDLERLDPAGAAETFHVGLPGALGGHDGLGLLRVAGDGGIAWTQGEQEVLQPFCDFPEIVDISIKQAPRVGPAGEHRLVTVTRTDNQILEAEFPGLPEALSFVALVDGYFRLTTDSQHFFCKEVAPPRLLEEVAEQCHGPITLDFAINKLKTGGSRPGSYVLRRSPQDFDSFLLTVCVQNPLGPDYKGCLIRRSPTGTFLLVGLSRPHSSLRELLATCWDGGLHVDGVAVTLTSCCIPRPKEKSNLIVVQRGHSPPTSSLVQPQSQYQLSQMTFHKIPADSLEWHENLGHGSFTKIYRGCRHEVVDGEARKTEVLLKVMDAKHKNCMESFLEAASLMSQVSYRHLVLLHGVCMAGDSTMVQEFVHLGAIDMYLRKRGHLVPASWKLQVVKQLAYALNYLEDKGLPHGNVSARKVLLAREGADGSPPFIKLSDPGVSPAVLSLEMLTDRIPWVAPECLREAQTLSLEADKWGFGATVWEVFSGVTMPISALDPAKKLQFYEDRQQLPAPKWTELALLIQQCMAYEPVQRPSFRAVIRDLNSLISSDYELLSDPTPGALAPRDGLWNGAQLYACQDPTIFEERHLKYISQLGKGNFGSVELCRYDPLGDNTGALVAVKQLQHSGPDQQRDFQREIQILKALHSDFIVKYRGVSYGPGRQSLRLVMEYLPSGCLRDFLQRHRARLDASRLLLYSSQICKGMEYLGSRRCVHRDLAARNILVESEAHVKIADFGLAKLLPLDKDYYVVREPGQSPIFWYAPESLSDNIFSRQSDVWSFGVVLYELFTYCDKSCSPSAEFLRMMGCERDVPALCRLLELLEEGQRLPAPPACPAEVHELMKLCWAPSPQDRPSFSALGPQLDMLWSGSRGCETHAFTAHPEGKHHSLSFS
Experimental: The cell-free kinase assays of small molecules were determined by following the manufacturer-recommended protocols. Different concentrations in triplicate were used to determine the IC50 value of the hit molecules (active molecules). For data analysis, GraphPad Prism V9.5 Software and a sigmoidal dose–response (variable slope) equation were used. Each value represents an average of three replicates per concentration.

MCF-7 = test: MTT cell viability assay MCF-7; type: cell-based, human; settings: 48 h
Experimental: as §1

IC50 (Panc-2) [µM] | IC50 (A549) [µM] | IC50 (HCT-116) [µM] | IC50 (Mia PaCa-2) [µM] | inhibitory activity against JAK3 in kinase assays and in MTT assays (JAK3) | IC50 (MCF-7) [µM] | Structure (SMILES) | IC50 (HEK-293) [µM]
3.16 | 0.47 | 1.89 | 8.3 | significant inhibitory activity | 1.65 | c1coc(-c2cnc3[nH]cc(-c4ccnc(NC5CC5)n4)c3c2)c1 [MJ01] | > 100
7.76 | 3.71 | 8.72 | 6.59 | significant inhibitory activity | 4.47 | Clc1ccc(-c2cnc3[nH]cc(-c4ccnc(NC5CC5)n4)c3c2)cc1 [MJ05] | > 100
4.67 | 3.13 | 3.12 | 7.1 | significant inhibitory activity | 1.83 | CSc1ccc(-c2cnc3[nH]cc(-c4ccnc(NC5CC5)n4)c3c2)cc1 [MJ02] | > 100
33.6 | 6.99 | 5.36 | 6.71 | significant inhibitory activity | 8.61 | Fc1ccc(-c2cnc3[nH]cc(-c4ccnc(NCCN5CCOCC5)n4)c3c2)cc1 [MJ10] | > 100
3.12 | 5.55 | 6.34 | 3.22 | less active | 1.38 | Nc1nccc(-c2c[nH]c3ncc(-c4cccc(F)c4)cc23)n1 [MJ07] | > 100
26.3 | 5.74 | 3.22 | 2.16 | significant inhibitory activity | 11.5 | c1cncc(-c2cnc3[nH]cc(-c4ccnc(NCCN5CCOCC5)n4)c3c2)c1 [MJ09] | > 100
19.3 | 5.1 | 1.18 | 5.38 | less active | 6.88 | Nc1nccc(-c2c[nH]c3ncc(-c4cccc(C(F)(F)F)c4)cc23)n1 [MJ08] | > 100
11 | 2.88 | 8.2 | 18.1 | significant inhibitory activity | 10.2 | CSc1ccccc1-c1cnc2[nH]cc(-c3ccnc(NC4CC4)n3)c2c1 [MJ03] | > 100
7.33 | 4.31 | 1.52 | 3.66 | significant inhibitory activity | 3.31 | Fc1cccc(-c2cnc3[nH]cc(-c4ccnc(NC5CC5)n4)c3c2)c1 [MJ06] | > 100
